Like-named read-outs stand apart in the source and are kept apart here.
What was measured:
[1] = molecular target: T1, hMOR-1 (Homo sapiens, UniProt P35372); experiment: Opioid receptor competitive binding assay, MOR (3H-DAMGO); settings: Ki MOR, 3H-DAMGO, hMOR-1 stably transfected into CHO cells
T1 construct: purchased Amersham Biosciences; host or cells: stably transfected CHO cells (membrane preparation)
Method: (§1) For selected compounds, Ki for MOR, DOR, and KOR were determined according to the following procedure: Recombinant hMOR-1 membrane preps from stably transfected CHO cells and recombinant hDOR-1 membrane preps from stably transfected HEK-293 cells were purchased from Amersham Biosciences. Guinea pig cerebellum preparations were used for KOR assays.
(§2) Each microassay from an assay plate was filtered through an individual well of a Packard GF/B 96-well filter plate (glass fiber filter) to collect the membranes. Each well was washed twice with 200 μL of ice cold wash buffer (50 mM Tris, pH 7.4). The filter plate was allowed to dry overnight, the back was sealed, and Packard Bioscience Microscint PS scintillation fluid (75 μL) was added to each well, which was then counted for ^3H for 2 minutes using a Packard Bioscience TopCount scintillation counter plate reader.
(§3) Each compound was assayed at 8 concentrations, using half-log serial dilutions. Each concentration was tested in triplicate, and the ^3H cpm were averaged.
(§4) This concentration was determined experimentally by scintillation counting an aliquot of the radioligand stock solution used in the assay.
(§5) Kd=the binding constant for the radioligand.
(§6) This triplicate experiment was repeated three times for the MOR and twice for the DOR and the KOR.

[2] = molecular target: T2, hDOR-1 (Homo sapiens, UniProt P41143); experiment: Opioid receptor competitive binding assay, DOR; settings: for Ki DOR/Ki MOR: Table 13, selectivity for MOR versus DOR (footnote: 3H-DPDPE, hDOR-1)
T2 construct: purchased Amersham Biosciences; host or cells: stably transfected HEK-293 cells (membrane preparation)
Method: as §1, §2, §3, §4, §5, §6

[3] = molecular target: T3, KOR (Cavia porcellus, UniProt P41144); experiment: Opioid receptor competitive binding assay, KOR (3H-U-69,593); design: species or system guinea pig; settings: for Ki KOR/Ki MOR: Table 13, selectivity for MOR versus KOR
T3 construct: from tissue; host or cells: guinea pig cerebellum preparation
Method: as §1, §2, §3, §6

[4] = molecular target: T1, hMOR-1; experiment: MOR GTP-γ-S assay (MOR activation); type: biochemical; settings: CHO membranes with hMOR-1; for % GTP-γ-S bound: Table 16, compound 10 μM, percentage of DAMGO induced GTP-γ-35S specific binding; for % GTP-γ-35S bound: Table 15, percentage of DAMGO induced GTP-g-35S specific binding
Method: MOR GTP-γ-S assay was run in the same 200 μL, 96 well format as the binding assay. Each microassay contained experimental compound, 0.04 nM GTP-γ-^35S, 9 μM GDP, and about 0.02 nM MOR (from stably transfected CHO cells), in assay buffer (50 mM Tris-HCl, 3 mM MgCl2, 0.2 mM EGTA, 100 mM NaCl, pH 7.4). The assays were incubated for two to three hours at room temperature, then filtered onto a filter plate. The plate was dried; scintillation fluid was added, and the wells were counted for ^35S. Blank assays were run to determine non-specific binding. […] The results were averaged; the non-specific counts were subtracted, and the resulting value was expressed as a percent of the value obtained for DAMGO. The error reported is two standard deviations from the mean of the quadruplicate experiment. The values were compared using one way Anova with Tukey's post-hoc analysis.

[5] = Table 4, errors 95% confidence interval
[6] = Ki DOR, Table 7, 3H-diprenorphine, hDOR-1 stably transfected into HEK-293 cells, errors two standard deviations
[7] = Ki KOR, Table 10, 3H-U-69,593, guinea pig cerebellum preparation, errors two standard deviations

| Compound | Ki ([1]; Table 5) | Ki ([2]; read-out: Ki DOR) | Ki ([3]; read-out: Ki KOR) | % GTP-γ-S bound [4] | Ki [1, 5] | Ki [2, 6] | Ki DOR/Ki MOR [2] | Ki [3, 7] | Ki KOR/Ki MOR [3] | % GTP-γ-35S bound ([4]; compound 10 mM (footnote)) | Ki ([1]; Table 3, errors 95% confidence interval) | % GTP-γ-35S bound ([4]; compound 10 μM (footnote)) |
| --- | --- | --- | --- | --- | --- | --- | --- | --- | --- | --- | --- | --- |
| NC(=O)C(Cc1ccccc1)NC(=O)C(Cc1ccccc1)C(O)/C=C/C(O)CC(N)Cc1ccc(O)cc1 (single isomer, unassigned) [(R, R, S, S)-43, 7-(1-Carbamoyl-2-phenyl-ethylcarbamoyl)-3,6-dihydroxy-1-(4-hydroxy-benzyl)-8-phenyl-oct-4-enyl-ammonium] | 38 ± 13 nM | 1200 ± 100 nM | 880 ± 550 nM | 30 ± 6% |  |  |  |  |  |  |  |  |
| NC(=O)C(Cc1ccccc1)NC(=O)C(Cc1ccccc1)C(O)/C=C/C(O)CC(N)Cc1ccc(O)cc1 (single isomer, unassigned) [(R, S, R, R)-43, 7-(1-Carbamoyl-2-phenyl-ethylcarbamoyl)-3,6-dihydroxy-1-(4-hydroxy-benzyl)-8-phenyl-oct-4-enyl-ammonium] | 20 ± 3 nM | 2500 ± 300 nM | 270 ± 30 nM | 68 ± 10% |  |  |  |  |  |  |  |  |
| NC(=O)C(Cc1ccccc1)NC(=O)C(Cc1ccccc1)C(O)/C=C/C(O)CC(N)Cc1ccc(O)cc1 (single isomer, unassigned) [(S, R, R, S)-43, 7-(1-Carbamoyl-2-phenyl-ethylcarbamoyl)-3,6-dihydroxy-1-(4-hydroxy-benzyl)-8-phenyl-oct-4-enyl-ammonium] | 28 ± 6 nM | 2500 ± 3000 nM | 1200 ± 600 nM | 48 ± 8% |  |  |  |  |  |  |  |  |
| NC(=O)C(Cc1ccccc1)NC(=O)C(Cc1ccccc1)C(O)/C=C/C(O)CC(N)Cc1ccc(O)cc1 (single isomer, unassigned) [(S, R, S, R)-43, 7-(1-Carbamoyl-2-phenyl-ethylcarbamoyl)-3,6-dihydroxy-1-(4-hydroxy-benzyl)-8-phenyl-oct-4-enyl-ammonium] | 32 ± 6 nM | 740 ± 40 nM | 290 ± 100 nM | 37 ± 7% |  |  |  |  |  |  |  |  |
| NC(=O)C(Cc1ccccc1)NC(=O)C(Cc1ccccc1)C(O)/C=C/C(O)CC(N)Cc1ccc(O)cc1 (single isomer, unassigned) [(S, R, S, S)-43, 7-(1-Carbamoyl-2-phenyl-ethylcarbamoyl)-3,6-dihydroxy-1-(4-hydroxy-benzyl)-8-phenyl-oct-4-enyl-ammonium] | 42 ± 5 nM | 2500 ± 300 nM | 3100 ± 2600 nM | 57 ± 12% |  |  |  |  |  |  |  |  |
| NC(=O)C(Cc1ccccc1)NC(=O)C(Cc1ccccc1)C(O)/C=C/C(O)CC(N)Cc1ccc(O)cc1 (single isomer, unassigned) [(S, S, R, S)-43, 7-(1-Carbamoyl-2-phenyl-ethylcarbamoyl)-3,6-dihydroxy-1-(4-hydroxy-benzyl)-8-phenyl-oct-4-enyl-ammonium] | 14 ± 1 nM | 1200 ± 100 nM | 450 ± 60 nM | 25 ± 5% |  |  |  |  |  |  |  |  |
| Cc1cc(O)cc(C)c1CC(N)C(O)C/C=C/C(O)C(Cc1ccccc1)C(=O)NC(Cc1ccccc1)C(N)=O (single isomer, unassigned) [(S,R,R,R)-25, 7-(1-Carbamoyl-2-phenyl-ethylcarbamoyl)-2,6-dihydroxy-1-(4-hydroxy-2,6-dimethyl-benzyl)-8-phenyl-oct-4-enyl-ammonium] |  |  |  |  | 1.6 ± 0.9 nM | 85 ± 13 nM | 53 | 25 ± 14 nM | 16 | 43 ± 9% |  |  |
| Cc1cc(O)cc(C)c1CC(N)C(O)C/C=C/C(O)C(Cc1ccccc1)C(=O)NCCc1ccccc1 (single isomer, unassigned) [(S,R,R,R)-26, 2,6-Dihydroxy-1-(4-hydroxy-2,6-dimethyl-benzyl)-7-phenethylcarbamoyl-8-phenyl-oct-4-enyl-ammonium] |  |  |  |  | 0.72 ± 0.26 nM | 66 ± 1 nM | 91 | 69 ± 20 nM | 96 | 27 ± 9% |  |  |
| Cc1cc(O)cc(C)c1CC(N)C(O)C/C=C/C(O)C(Cc1ccccc1)C(=O)NC(Cc1ccccc1)C(N)=O (single isomer, unassigned) [(S,R,S,R)-25, 7-(1-Carbamoyl-2-phenyl-ethylcarbamoyl)-2,6-dihydroxy-1-(4-hydroxy-2,6-dimethyl-benzyl)-8-phenyl-oct-4-enyl-ammonium] |  |  |  |  | 1.2 ± 0.3 nM | 46 ± 16 nM | 38 | 15 ± 8 nM | 13 | 14 ± 3% |  |  |
| Cc1cc(O)cc(C)c1CC(N)C(O)C/C=C/C(O)C(Cc1ccccc1)C(=O)NCCc1ccccc1 (single isomer, unassigned) [(S,R,S,R)-26, 2,6-Dihydroxy-1-(4-hydroxy-2,6-dimethyl-benzyl)-7-phenethylcarbamoyl-8-phenyl-oct-4-enyl-ammonium] |  |  |  |  | 0.24 ± 0.05 nM | 123 ± 8 nM | 510 | 51 ± 1 nM | 210 | 49 ± 4% |  |  |
| Cc1cc(O)cc(C)c1CC(N)C(O)C/C=C/C(O)C(Cc1ccccc1)C(=O)NC(Cc1ccccc1)C(N)=O (single isomer, unassigned) [(S,S,R,R)-25, 7-(1-Carbamoyl-2-phenyl-ethylcarbamoyl)-2,6-dihydroxy-1-(4-hydroxy-2,6-dimethyl-benzyl)-8-phenyl-oct-4-enyl-ammonium] |  |  |  |  | 0.42 ± 0.09 nM | 36 ± 6 nM | 86 | 21 ± 4 nM | 49 | 75 ± 11% |  |  |
| Cc1cc(O)cc(C)c1CC(N)C(O)C/C=C/C(O)C(Cc1ccccc1)C(=O)NCCc1ccccc1 (single isomer, unassigned) [(S,S,R,R)-26, 2,6-Dihydroxy-1-(4-hydroxy-2,6-dimethyl-benzyl)-7-phenethylcarbamoyl-8-phenyl-oct-4-enyl-ammonium] |  |  |  |  | 0.37 ± 0.13 nM | 26 ± 3 nM | 70 | 64 ± 14 nM | 170 | 48 ± 9% |  |  |
| Cc1cc(O)cc(C)c1CC(N)C(O)C/C=C/C(O)C(Cc1ccccc1)C(=O)NC(Cc1ccccc1)C(N)=O (single isomer, unassigned) [(S,S,R,S)-25, 7-(1-Carbamoyl-2-phenyl-ethylcarbamoyl)-2,6-dihydroxy-1-(4-hydroxy-2,6-dimethyl-benzyl)-8-phenyl-oct-4-enyl-ammonium] |  |  |  |  | 1.2 ± 0.4 nM | 230 ± 20 nM | 190 | 50 ± 16 nM | 41 | 32 ± 5% |  |  |
| Cc1cc(O)cc(C)c1CC(N)C(O)C/C=C/C(O)C(Cc1ccccc1)C(=O)NCCc1ccccc1 (single isomer, unassigned) [(S,S,R,S)-26, 2,6-Dihydroxy-1-(4-hydroxy-2,6-dimethyl-benzyl)-7-phenethylcarbamoyl-8-phenyl-oct-4-enyl-ammonium] |  |  |  |  | 0.64 ± 0.09 nM | 120 ± 30 nM | 190 | 60 ± 32 nM | 94 | 52 ± 6% |  |  |
| Cc1cc(O)cc(C)c1CC(N)C(O)C/C=C/C(O)C(Cc1ccccc1)C(=O)NC(Cc1ccccc1)C(N)=O (single isomer, unassigned) [(S,S,S,R)-25, 7-(1-Carbamoyl-2-phenyl-ethylcarbamoyl)-2,6-dihydroxy-1-(4-hydroxy-2,6-dimethyl-benzyl)-8-phenyl-oct-4-enyl-ammonium] |  |  |  |  | 0.17 ± 0.07 nM | 40 ± 1 nM | 230 | 22 ± 9 nM | 130 | 35 ± 5% |  |  |
| Cc1cc(O)cc(C)c1CC(N)C(O)C/C=C/C(O)C(Cc1ccccc1)C(=O)NC(CN)Cc1ccccc1 [(S,S,S,R)-28] |  |  |  |  | 0.45 ± 0.05 nM | 21 ± 4 nM |  |  |  | 47 ± 5% |  |  |
| NC(=O)[C@H](Cc1ccccc1)NC(=O)[C@H](Cc1ccccc1)NC(=O)[C@H]1CCCN1C(=O)[C@@H](N)Cc1ccc(O)cc1 [Compound 1, Endomorphin-2, reference compound] | 1 ± 0.1 nM |  |  | 100 ± 6% | 0.69 ± 0.18 nM |  |  |  |  |  | 1.2 ± 0.1 nM | 100 ± 6% |

From patent US7223888B2, “Mu opioid receptor ligands: methods of use and synthesis” (President and Fellows of Harvard College, priority 2002, dated 2007)
